Test results reported in patent US9045491B2, “Thienyl [3,2-D] pyrimidin-4-one compounds, preparation method, pharmaceutical compositions and use thereof” (SHANGHAI INSTITUTE OF MATERIA MEDICA, CHINESE ACADEMY OF …, priority 2011, dated 2015).

Assays:
Format in all cases: biochemical
[1] = target: dipeptidyl peptidase 7 (DPP 7) (Homo sapiens, UniProt Q9UHL4); assay: DPP 7 activity screening; conditions: N.I. = No Inhibition
Description: (§1) Screening method: dipeptidyl peptidase IV (DPP IV) activity screening, dipeptidyl peptidase 7 (DPP 7), dipeptidyl peptidase 8 (DPP 8) activity screening, and dipeptidyl peptidase 9 (DPP 9) activity screening.
(§2) Sample treatment: the sample was dissolved in DMSO and stored in low temperature. The concentration of DMSO in the final system was controlled so that the detected activity was not affected.
(§3) The activity of sample was tested under the selected single concentration from preliminary screening, for example, 20 μg/mL. […] The software for calculation was Graphpad Prism 4 and the model used for fitting was sigmoidal dose-response (variable slope). For most inhibitor screening models, the bottom and top of the fitting curve were set to 0 and 100.

[2] = target: T1, human DPP IV (Homo sapiens, UniProt P27487); assay: DPP IV activity screening (Ala-Pro-AMC fluorescence)
T1 construct: extracellular fragment of protease DPP IV (aa29-766); made in house; host or cells: baculovirus expression system Bac-to-Bac
T1 sequence (P27487 29-766): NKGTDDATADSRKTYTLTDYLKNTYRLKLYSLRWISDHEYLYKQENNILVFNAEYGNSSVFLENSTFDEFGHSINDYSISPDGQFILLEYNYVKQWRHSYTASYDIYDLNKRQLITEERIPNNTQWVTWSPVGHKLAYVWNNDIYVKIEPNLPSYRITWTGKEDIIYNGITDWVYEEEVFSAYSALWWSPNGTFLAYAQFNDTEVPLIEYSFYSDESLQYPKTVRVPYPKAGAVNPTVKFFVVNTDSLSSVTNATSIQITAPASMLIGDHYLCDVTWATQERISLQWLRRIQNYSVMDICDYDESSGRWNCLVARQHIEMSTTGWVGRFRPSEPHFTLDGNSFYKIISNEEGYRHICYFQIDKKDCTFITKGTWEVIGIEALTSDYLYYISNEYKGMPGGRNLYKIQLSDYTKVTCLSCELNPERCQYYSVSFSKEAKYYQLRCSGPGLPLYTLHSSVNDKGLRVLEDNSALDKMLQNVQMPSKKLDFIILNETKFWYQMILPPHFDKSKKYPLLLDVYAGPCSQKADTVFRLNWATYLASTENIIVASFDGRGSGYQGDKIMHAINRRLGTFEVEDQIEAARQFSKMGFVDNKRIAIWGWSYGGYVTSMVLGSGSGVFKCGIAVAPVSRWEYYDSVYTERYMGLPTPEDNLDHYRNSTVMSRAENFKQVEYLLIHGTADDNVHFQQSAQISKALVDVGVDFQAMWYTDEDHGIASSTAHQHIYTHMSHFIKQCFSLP
Description: as §1
Instruments: Microplate Reader (PerkinElmer, USA).
The linear change of fluorescence value at 460 nm in unit time was dynamically measured and DPP IV activity was obtained by calculation.
as §2, §3

[3] = target: T2, human DPP 8 (Homo sapiens, UniProt Q6V1X1); assay: DPP 8 activity screening (Ala-Pro-AMC fluorescence); conditions: N.I. = No Inhibition
T2 construct: made in house; host or cells: insect cells, baculovirus Bac-to-Bac
T2 sequence (Q6V1X1 whole entry): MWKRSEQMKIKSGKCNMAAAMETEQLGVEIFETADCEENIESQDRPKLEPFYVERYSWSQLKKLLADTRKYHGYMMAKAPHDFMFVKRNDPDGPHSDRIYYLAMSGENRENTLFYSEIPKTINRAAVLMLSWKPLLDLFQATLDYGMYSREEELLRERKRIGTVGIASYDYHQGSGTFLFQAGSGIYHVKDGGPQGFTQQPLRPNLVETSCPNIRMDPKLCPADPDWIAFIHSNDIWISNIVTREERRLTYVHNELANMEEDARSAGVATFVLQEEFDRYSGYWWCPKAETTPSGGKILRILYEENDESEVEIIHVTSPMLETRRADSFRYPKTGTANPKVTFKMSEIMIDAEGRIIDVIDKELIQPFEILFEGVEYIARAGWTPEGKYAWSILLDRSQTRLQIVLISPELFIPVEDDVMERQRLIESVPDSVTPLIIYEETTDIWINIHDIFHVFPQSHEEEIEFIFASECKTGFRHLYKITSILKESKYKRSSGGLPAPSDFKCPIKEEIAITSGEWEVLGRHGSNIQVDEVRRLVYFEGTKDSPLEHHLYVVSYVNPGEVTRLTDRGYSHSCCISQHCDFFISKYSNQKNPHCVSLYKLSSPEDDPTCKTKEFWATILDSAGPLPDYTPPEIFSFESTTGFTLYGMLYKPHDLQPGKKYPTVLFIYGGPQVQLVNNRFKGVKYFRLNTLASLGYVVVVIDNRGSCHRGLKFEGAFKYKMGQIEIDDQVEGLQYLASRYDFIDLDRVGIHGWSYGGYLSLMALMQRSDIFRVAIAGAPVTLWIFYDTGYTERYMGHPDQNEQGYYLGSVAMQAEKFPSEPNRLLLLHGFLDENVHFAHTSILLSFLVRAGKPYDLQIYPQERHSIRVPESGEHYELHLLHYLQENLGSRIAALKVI
From the text: as §1
(§4) Materials: human DPP IV, obtained extracellular fragment of protease DPP IV (aa29-766), was expressed and purified by our laboratory using baculovirus expression system Bac-to-Bac (purchased from GIBCO company) in accordance with the conventional experimental technology; human DPP 8 was obtained in insect cells by our laboratory using baculovirus expression system Bac-to-Bac (purchased from GIBCO company) in accordance with the conventional experimental technology; Human DPP 9 was obtained in insect cells by our laboratory using baculovirus expression system Bac-to-Bac (purchased from GIBCO company) in accordance with the conventional experimental technology; and the substrate Ala-Pro-AMC was synthesized by GL Biochem (Shanghai) Ltd.
(§5) Principle of Activity test: DPP IV, DPP 8 and DPP 9 can specifically hydrolyze the substrate Ala-Pro-AMC to form product AMC, and AMC is excited by 355 nm of UV light to generate 460 nm of emission light. The linear change of fluorescence value at 460 nm in unit time was dynamically measured and DPP IV activity was obtained by calculation.
as §2, §3

[4] = target: T3, Human DPP 9 (Homo sapiens, UniProt Q86TI2); assay: DPP 9 activity screening (Ala-Pro-AMC fluorescence); conditions: N.I. = No Inhibition
T3 construct: made in house; host or cells: insect cells, baculovirus Bac-to-Bac
T3 sequence (Q86TI2 whole entry): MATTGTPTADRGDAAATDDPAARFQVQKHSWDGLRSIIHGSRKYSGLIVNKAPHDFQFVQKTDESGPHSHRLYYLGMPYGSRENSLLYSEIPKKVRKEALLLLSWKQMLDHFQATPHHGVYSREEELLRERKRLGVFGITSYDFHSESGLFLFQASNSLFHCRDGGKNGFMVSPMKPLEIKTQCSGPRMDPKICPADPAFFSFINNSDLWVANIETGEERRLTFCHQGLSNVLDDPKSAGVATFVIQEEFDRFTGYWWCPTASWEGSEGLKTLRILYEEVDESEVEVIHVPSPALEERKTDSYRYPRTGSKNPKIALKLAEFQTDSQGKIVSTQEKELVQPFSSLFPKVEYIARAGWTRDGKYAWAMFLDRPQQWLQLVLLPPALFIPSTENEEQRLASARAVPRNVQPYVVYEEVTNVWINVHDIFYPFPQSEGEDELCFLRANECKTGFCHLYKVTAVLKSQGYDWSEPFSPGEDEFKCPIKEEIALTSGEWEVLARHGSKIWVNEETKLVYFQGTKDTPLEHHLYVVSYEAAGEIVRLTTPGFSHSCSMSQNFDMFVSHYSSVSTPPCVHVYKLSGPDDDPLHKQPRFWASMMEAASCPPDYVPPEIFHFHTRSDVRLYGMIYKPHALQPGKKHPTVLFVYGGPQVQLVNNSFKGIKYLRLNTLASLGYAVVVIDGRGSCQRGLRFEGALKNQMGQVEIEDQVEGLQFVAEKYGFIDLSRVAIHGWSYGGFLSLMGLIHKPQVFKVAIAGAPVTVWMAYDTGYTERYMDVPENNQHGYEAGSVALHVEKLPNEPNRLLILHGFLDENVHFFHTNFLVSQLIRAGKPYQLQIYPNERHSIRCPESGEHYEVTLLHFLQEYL
From the text: as §1, §4, §5, §2, §3

SMILES	DPP 7 IC50 [1]	IC50 [2] [nM]	IC50 [3] [nM]	DPP 9 IC50 [4]	DPP 8 IC50 [3]	IC50 [4] [nM]
CCOC(=O)CCNC(=O)c1csc2c(=O)n(Cc3ccccc3C#N)c(N3CCC[C@@H](N)C3)nc12 [Compound 88, (R)-ethyl 3-(2-(3-aminopiperidin-1-yl)-3-(2-cyanobenzyl)-4-oxo-3,4-dihydrothieno[3,2-d]pyrimidine-7-carboxamido)propanoate]	N.I.	14.8	54900	N.I.	–	–
COC(=O)[C@@H]1CCCN1C(=O)c1csc2c(=O)n(Cc3ccccc3C#N)c(N3CCC[C@@H](N)C3)nc12 [Compound 91, (S)-methyl 1-(2-((R)-3-aminopiperidin-1-yl)-3-(2-cyanobenzyl)-4-oxo-3,4-dihydrothieno[3,2-d]pyrimidine-7-carbonyl)pyrrolidine-2-carboxylate]	N.I.	36.4	88000	N.I.	–	–
N#Cc1ccccc1Cn1c(N2CCC[C@@H](N)C2)nc2c(Cl)c(Cl)sc2c1=O [Compound 10, (R)-2-((2-(3-aminopiperidin-1-yl)-6,7-dichloro-4-oxothieno[3,2-d]pyrimidin-3(4H)-yl)methyl)benzonitrile]	–	90	–	–	–	–
N#Cc1ccccc1Cn1c(N2CCC[C@@H](N)C2)nc2c(C(=O)N[C@H]3CCOC3=O)csc2c1=O [Compound 92, 2-((R)-3-aminopiperidin-1-yl)-3-(2-cyanobenzyl)-4-oxo-N-((S)-2-oxotetrahydrofuran-3-yl)-3,4-dihydrothieno[3,2-d]pyrimidine-7-carboxamide]	N.I.	21.7	76700	N.I.	–	–
N#Cc1ccccc1Cn1c(N2CCC[C@@H](N)C2)nc2cc(C(=O)N3CCC[C@H]3CO)sc2c1=O [Compound 128, 2-((2-((R)-3-aminopiperidin-1-yl)-6-((S)-2-(hydroxymethyl)pyrrolidine-1-carbonyl)-4-oxothieno[3,2-d]pyrimidin-3(4H)-yl)methyl)benzonitrile]	N.I.	30.7	39000	N.I.	–	–
N#Cc1ccccc1Cn1c(N2CCC[C@@H](N)C2)nc2cc(Cl)sc2c1=O [Compound 8, (R)-2-((2-(3-aminopiperidin-1-yl)-6-chloro-4-oxothieno[3,2-d]pyrimidin-3 (4H)-yl)methyl)benzonitrile]	–	45.6	–	–	–	–
N#Cc1ccccc1Cn1c(N2CCC[C@@H](N)C2)nc2cc(C(=O)NCCO)sc2c1=O [Compound 123, (R)-2-(3-aminopiperidin-1-yl)-3-(2-cyanobcnzyl)-N-(2-hydroxyethyl)-4-oxo-3,4-dihydrothieno[3,2-d]-pyrimidine-6-carboxamide]	N.I.	19.8	223000	N.I.	–	–
CCOC(=O)C1CCN(C(=O)c2cc3nc(N4CCC[C@@H](N)C4)n(Cc4ccccc4C#N)c(=O)c3s2)CC1 [Compound 129, (R)-ethyl 1-(2-(3-aminopiperidin-1-yl)-3-(2-cyanobenzyl)-4-oxo-3,4-dihydrothieno[3,2-d]pyrimidine-6-carbonyl)piperidine-4-carboxylate]	N.I.	33.9	16300	N.I.	–	–
N#Cc1ccccc1Cn1c(N2CCC[C@@H](N)C2)nc2cc(C(Br)Br)sc2c1=O [Compound 98, (R)-2-((2-(3-aminopiperidin-1-yl)-6-(dibromomethyl)-4-oxothieno[3,2-d]-pyrimidin-3(4H)-yl)methyl)benzonitrile]	N.I.	9.95	–	–	–	–
N#Cc1ccccc1Cn1c(N2CCC[C@@H](N)C2)nc2c(Br)csc2c1=O [Compound 4, (R)-2-((2-(3-aminopiperidin-1-yl)-7-bromo-4-oxothieno[3,2-d]pyrimidin-3(4H)-yl)methyl)benzonitrile]	–	8.78	–	–	–	–
N#Cc1ccccc1Cn1c(N2CCC[C@@H](N)C2)nc2cc(C(=O)N[C@H]3CCOC3=O)sc2c1=O [Compound 127, 2-((R)-3-aminopiperidin-1-yl)-3-(2-cyanobenzyl)-4-oxo-N-((S)-2-oxotetrahydrofuran-3-yl)-3,4-dihydrothieno[3,2-d]pyrimidine-6-carboxamide]	N.I.	24.6	52700	N.I.	–	–
N#Cc1ccccc1Cn1c(N2CCC[C@@H](N)C2)nc2c(CO[C@H]3CCOC3)csc2c1=O [Compound 87, 2-((2-((R)-3-aminopiperidin-1-yl)-4-oxo-7-((((S)-tetrahydrofuran-3-yl)oxy)methyl)thieno[3,2-d]pyrimidin-3(4H)-yl)methyl)benzonitrile]	N.I.	26.5	–	N.I.	N.I.	–
N#Cc1ccccc1Cn1c(N2CCC[C@@H](N)C2)nc2cc(C(=O)N3CCC(CO)CC3)sc2c1=O [Compound 124, (R)-2-((2-(3-aminopiperidin-1-yl)-6-(4-(hydroxymethyl)piperidine-1-carbonyl)-4-oxothieno[3,2-d]pyrimidin-3(4H)-yl)methyl)benzonitrile]	N.I.	26.9	43900	N.I.	–	–
CS(=O)(=O)CCNC(=O)c1cc2nc(N3CCC[C@@H](N)C3)n(Cc3ccccc3C#N)c(=O)c2s1 [Compound 126, (R)-2-(3-aminopiperidin-1-yl)-3-(2-cyanobenzyl)-N-(2-(methylsulfonyl)-ethyl)-4-oxo-3,4-dihydrothieno[3,2-d]-pyrimidine-6-carboxamide]	N.I.	20.1	55900	N.I.	–	–
COC(=O)[C@@H]1CCCN1C(=O)c1cc2nc(N3CCC[C@@H](N)C3)n(Cc3ccccc3C#N)c(=O)c2s1 [Compound 125, (S)-methyl 1-(2-((R)-3-aminopiperidin-1-yl)-3-(2-cyanobenzyl)-4-oxo-3,4-dihydrothieno[3,2-d]pyrimidine-6-carbonyl)pyrrolidine-2-carboxylate]	N.I.	33.8	15500	–	–	172000
CCOC(=O)CCCNC(=O)c1csc2c(=O)n(Cc3ccccc3C#N)c(N3CCC[C@@H](N)C3)nc12 [Compound 89, (R)-ethyl 4-(2-(3-aminopiperidin-1-yl)-3-(2-cyanobenzyl)-4-oxo-3,4-dihydrothieno[3,2-d]pyrimidine-7-carboxamido)butanoate]	N.I.	14.3	39400	N.I.	–	–
N#Cc1ccccc1Cn1c(N2CCC[C@@H](N)C2)nc2c(Cl)csc2c1=O [Compound 9, (R)-2-((2-(3-aminopiperidin-1-yl)-7-chloro-4-oxothieno[3,2-d]pyrimidin-3-(4H)-yl)methyl)benzonitrile]	–	36.8	–	–	–	–
CS(=O)(=O)CCNC(=O)c1csc2c(=O)n(Cc3ccccc3C#N)c(N3CCC[C@@H](N)C3)nc12 [Compound 90, (R)-2-(3-aminopiperidin-1-yl)-3-(2-cyanobenzyl)-N-(2-(methylsulfonyl)-ethyl)-4-oxo-3,4-dihydrothieno[3,2-d]-pyrimidine-7-carboxamide]	N.I.	14.3	102000	N.I.	–	–
N#Cc1ccccc1Cn1c(N2CCC[C@@H](N)C2)nc2cc(F)sc2c1=O [Compound 1, (R)-2-((2-(3-aminopiperidin-1-yl)-6-fluoro-4-oxothieno[3,2-d]pyrimidin-3(4H)-yl)methyl)benzonitrile]	–	34.7	–	–	–	–
N#Cc1ccccc1Cn1c(N2CCC[C@@H](N)C2)nc2c3c(sc2c1=O)CCCC3 [Compound 27, (R)-2-((2-(3-aminopiperidin-1-yl)-4-oxo-6,7,8,9-tetrahydrobenzo[4,5]thieno-[3,2-d]pyrimidin-3(4H)-yl)methyl)-benzonitrile]	–	35.5	–	–	–	–
N#Cc1ccccc1Cn1c(N2CCC[C@@H](N)C2)nc2c(C(=O)NCCCO)csc2c1=O [Compound 93, (R)-2-(3-aminopiperidin-1-yl)-3-(2-cyanobenzyl)-N-(3-hydroxypropyl)-4-oxo-3,4-dihydrothieno[3,2-d]pyrimidine-7-carboxamide]	N.I.	14.8	60700	N.I.	–	–
